Experimental data published in the supplement of paper PMC4314810.
± gives the standard deviation of the averaged measurements.

system: MCF7; experiment: HRG-induced Akt activation (dPAkt = log2 pAkt/Akt HRG-stimulated minus log2 pAkt/Akt basal) (log2 ratio difference); higher = stronger HRG-induced Akt(T308) phosphorylation; conditions: miRNA mimic concentration 10 nM; time after transfection 72 h; heregulin 10 ng/ml; stimulation time 1 h
Summary of the method: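 MCF7 cells ([…], 96-well plates) carrying one of 879 miRNA mimics, transfected at 10 nM final with Lipofectamine RNAiMax in two biological replicates, were stimulated after 72 h with 10 ng/ml heregulin-beta1 for 1 h or left unstimulated. Phospho-Akt(T308) and total Akt in cells fixed with 4% PFA were read by In-Cell Western on an Odyssey and corrected for column-wise fixation decay to give log2(pAkt/Akt). Heregulin-induced Akt activation is the replicate mean of stimulated minus unstimulated ratios.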

Sequence | HRG-induced Akt activation (log2)
UGCCUACUGAGCUGAAACACAG | 1.549 ± 0.007
AACUGGAUCAAUUAUAGGAGUG | 1.79 ± 0.16
AUCCGCGCUCUGACUCUCUGCC | 1.53 ± 0.14
AGCUUCUUUACAGUGCUGCCUUG | 1.68 ± 0.2
CUAUACAACCUACUGCCUUCCC | 1.27 ± 0.16
AGGCGGAGACUUGGGCAAUUG | 2.43 ± 0.29
UAAGUGCUUCCAUGUUUUAGUAG | 1.08 ± 0.1
UGAUUGUCCAAACGCAAUUCU | 1.82 ± 0.3
AAUCACUAACCACACGGCCAGG | 1.79 ± 0.65
AAUGCACCCGGGCAAGGAUUCU | 1.91 ± 0.056
UCUAGGCUGGUACUGCUGA | 1.57 ± 0.13
UUCAAGUAAUCCAGGAUAGGCU | 1.19 ± 0.24
AUCACAUUGCCAGGGAUUUCC | 1.12 ± 0.24
GAGGGUUGGGUGGAGGCUCUCC | 1.47 ± 0.36
UGUGCUUGCUCGUCCCGCCCGCA | 1.82 ± 0.029
AACCCGUAGAUCCGAUCUUGUG | 0.985 ± 0.36
AUCGUGCAUCCUUUUAGAGUGU | 1.47 ± 0.099
CAGGUCGUCUUGCAGGGCUUCU | 1.44 ± 0.68
UGAGUACCGCCAUGUCUGUUGGG | 1.98 ± 0.09
GUCAUACACGGCUCUCCUCUCU | 0.922 ± 0.81
CAUCUUCCAGUACAGUGUUGGA | 1.73 ± 0.073

Sequence | HRG-induced Akt activation (log2)
GGGCGACAAAGCAAGACUCUUUCUU | 1.56 ± 0.061
AACAUUCAUUGUUGUCGGUGGGU | 2.236 ± 0.017
CUUAUCAGAUUGUAUUGUAAUU | 1.87 ± 0.024
AACAAUAUCCUGGUGCUGAGUG | 1.79 ± 0.41
CCAGACAGAAUUCUAUGCACUUUC | 1.93 ± 0.7
ACAGUCUGCUGAGGUUGGAGC | 1.54 ± 0.044
AGCUCGGUCUGAGGCCCCUCAGU | 0.753 ± 0.54
UGGCAGUGUCUUAGCUGGUUGU | 1.99 ± 0.091
AAAGUGCUUCCUUUUAGAGGGU | 0.665 ± 0.11
GUCCGCUCGGCGGUGGCCCA | 1.34 ± 0.29
CGGAUGAGCAAAGAAAGUGGUU | 1.19 ± 0.07
UGUAAACAUCCUUGACUGGAAG | 1.12 ± 0.049
UUUGAGGCUACAGUGAGAUGUG | 2.06 ± 0.034
UAAGGCACGCGGUGAAUGCC | 1.15 ± 0.41
UGGGGAGCUGAGGCUCUGGGGGUG | 1.74 ± 0.26
AGCUACAUCUGGCUACUGGGU | 1.48 ± 0.25
ACUUCACCUGGUCCACUAGCCGU | 1.3 ± 0.29
CUUAUGCAAGAUUCCCUUCUAC | 1.85 ± 0.23
UAAAGAGCCCUGUGGAGACA | 1.58 ± 0.083
AUCAUGAUGGGCUCCUCGGUGU | 1.41 ± 0.22
